# Test results: patent US9510598B2, “Nitrogen-containing heterocyclic compounds for plant disease control” (BAYER CROPSCIENCE AG, priority 2012, dated 2016)
# Like-named read-outs stand apart in the source and are kept apart here.
# How the values were obtained:
# [1] = assay type: physicochemical; conditions: for chromatographic logP: pH 2.7
# physchem = conditions: pH 2.7
# Experimental: Measurement of log P values was performed according EEC directive 79/831 Annex V.A8 by HPLC (High Performance Liquid Chromatography) on reversed phase columns with the following methods: ^[a]
# Alternaria brassicae = assay: In vivo preventive test on Alternaria brassicae (leaf spot on radish); conditions: 500 ppm; radish plants sprayed 24 hours before contamination; grading 5 days after contamination vs control plants
# How it was run: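 Radish plants ('Pernod Clair', grown at 17 °C) were spray-treated at the 2-leaf stage; controls received solvent mix only. After 24 h, leaves were sprayed with 50 000 spores/ml from 15-day-old cultures, and % efficacy was graded 5 days post-inoculation against controls.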
# Botrytis cinerea = assay: In vivo preventive test on Botrytis cinerea (grey mould); conditions: 500 ppm; gherkin plants sprayed 24 hours before contamination; grading 4-5 days after contamination vs control plants
# How it was run: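 Gherkin plants ("Vert petit de Paris") sprayed with compound at Z11 cotyledon stage, then inoculated 24 h later with B. cinerea spores (50 000/ml) in PDB/fructose/NH4NO3/KH2PO4 nutrient solution. Incubated at 17 °C, 80% RH; % efficacy versus solvent-treated controls graded 4–5 days after contamination.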
# Peronospora parasitica = assay: In vivo preventive test on Peronospora parasitica (crucifer downy mildew); conditions: 500 ppm; cabbage plants sprayed 24 hours before contamination; grading 5 days after contamination vs control plants
# Experimental: Cabbage plants (Eminence variety) in starter cups, sown on a 50/50 peat soil-pozzolana substrate and grown at 18-20° C., are treated at the cotyledon stage by spraying with the aqueous suspension described above. Plants, used as controls, are treated with an aqueous solution not containing the active material. After 24 hours, the plants are contaminated by spraying them with an aqueous suspension of Peronospora parasitica spores (50.000 spores per ml). The spores are collected from infected plant. The contaminated cabbage plants are incubated for 5 days at 20° C., under a humid atmosphere. Grading is carried out 5 days after the contamination, in comparison with the control plants.
# Phytophthora infestans = assay type: in vivo; conditions: 500 ppm; tomato plants sprayed 24 hours before contamination; grading 5 days after contamination vs control plants
# Pyrenophora teres = assay: In vivo preventive test on Pyrenophora teres (net blotch on barley); conditions: 500 ppm; barley plants sprayed 24 hours before contamination; grading 12 days after contamination vs control plants
# Experimental: Barley plants (“Plaisant” variety), sown in starter cups on a 50/50 peat soil-pozzolana substrate and grown at 22° C. (12 h)/20° C. (12 h), are treated at the 1-leaf stage (10 cm height) by spraying with the active ingredient prepared as described above. Plants, used as controls, are treated with the mixture of acetone/tween/DMSO/water not containing the active material. After 24 hours, the plants are contaminated by spraying the leaves with an aqueous suspension of Pyrenophora teres spores (12 000 spores per ml). The spores are collected from a 12-day-old culture. […] Grading (% of efficacy) is carried out 12 days after the contamination, in comparison with the control plants.
# Puccinia recondita = assay: In vivo preventive test on Puccinia recondita (brown rust on wheat); conditions: 500 ppm; wheat plants sprayed 24 hours before contamination; grading 10 days after contamination vs control plants
# How it was run: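 Wheat (Scipion) grown at 22° C./20° C. (12 h each), sprayed with active ingredient at 1-leaf stage (10 cm); controls sprayed with acetone/tween/DMSO/water lacking active. Leaves inoculated 24 hours later with Puccinia recondita spore suspension (100 000 spores per ml).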
# Septoria tritici = assay: In vivo preventive test on Septoria tritici (leaf spot on wheat); conditions: 500 ppm; wheat plants sprayed 24 hours before contamination; grading 21 to 28 days after contamination vs control plants
# How it was run: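 Scipion wheat at 1-leaf stage sprayed with compound, controls receiving acetone/tween/DMSO/water vehicle; 24 h later leaves inoculated with Septoria tritici spores (500 000 spores per ml). Efficacy (%) graded versus control plants 21 to 28 days after contamination.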
# Sphaerotheca fuliginea = assay: In vivo preventive test on Sphaerotheca fuliginea (powdery mildew on cucurbits); conditions: 500 ppm; gherkin plants sprayed 24 hours before contamination; grading 12 days after contamination vs control plants
# How it was run: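 Preventive spray of gherkin plants at Z11 cotyledon stage, grown at 24° C; inoculation 24 hours later with Sphaerotheca fuliginea spores (100 000 spores per ml). Efficacy graded 12 days post-inoculation as % versus solvent-treated control plants.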
# Uromyces appendiculatus = assay: In vivo preventive test on Uromyces appendiculatus (bean rust); conditions: 500 ppm; bean plants sprayed 24 hours before contamination; grading 10 days after contamination vs control plants
# How it was run: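 Saxa bean plants grown at 24° C were sprayed at the 2-leaf stage (9 cm). Controls got the acetone/tween/DMSO/water carrier without active material. Leaves were inoculated 24 hours later with a Uromyces appendiculatus spore suspension (150 000 spores per ml).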
smiles,measurement,setting,value
"CC1(C(=O)O)CC(c2ccc3ncc(Cl)cc3c2)=NO1 (stereo not shown) [Compound No. II-01, 3-(3-chloroquinolin-6-yl)-5-methyl-4,5-dihydro-1,2-oxazole-5-carboxylic acid]",chromatographic logP,[1],1.87
same,chromatographic logP,physchem,1.87
CC1(C(=O)O)CC(c2ccc3ncc(I)cc3c2)=NO1 (stereo not shown) [Compound No. II-09],chromatographic logP,[1],1.93
same,chromatographic logP,physchem,2.05
"COC(=O)C1(C)CC(c2ccc3ncc(Cl)cc3c2)=NO1 (stereo not shown) [II-23, methyl 3-(3-chloroquinolin-6-yl)-5-methyl-4,5-dihydro-1,2-oxazole-5-carboxylate]",chromatographic logP,[1],2.58
same,chromatographic logP,physchem,2.58
COC1(C(=O)NC(C)C)CC(c2ccc3ncc(Br)cc3c2)=NO1 (stereo not shown) [compound 48],log P,"[1]; method [a]: HPLC/LC-MS on reversed phase at pH 2.7, 0.1% formic acid in water / acetonitrile, linear gradient 10% to 95% acetonitrile",2.64^[a]
same,% of efficacy (protection),Alternaria brassicae,97%
same,% of efficacy (protection),Botrytis cinerea,100%
same,"Grading, protection",Peronospora parasitica,98%
same,% of efficacy (protection),Phytophthora infestans,100%
same,% of efficacy (protection),Pyrenophora teres,93%
same,% of efficacy (protection),Puccinia recondita,89%
same,% of efficacy (protection),Septoria tritici,100%
same,% of efficacy (protection),Sphaerotheca fuliginea,100%
same,% of efficacy (protection),Uromyces appendiculatus,96%
